Patent US10793582B2, “Bicyclic heterocyclic compound” (MITSUBISHI TANABE PHARMA CORPORATION, priority 2015, dated 2020)

target: human recombinant KAT-II (Homo sapiens (Human), UniProt Q8N5Z0); assay: KAT-II inhibitory test; assay type: biochemical; conditions: 3.0 μmol/L kynurenine, 37° C. for 1 hr, kynurenic acid by HPLC
Experimental: The compounds described in the above-mentioned Examples were used for the KAT-II inhibitory test.
Human recombinant KAT-II was prepared as follows.
His tag and maltose binding protein tag were added to the N-terminal of a gene encoding human KAT-II (Genbank accession number: AF481738.1), and the obtained gene was incorporated into pET32 (Merck Nihon Millipore), which is an Escherichia coli expression vector. Human recombinant KAT-II produced by BL21(DE3) Escherichia coli (Merck Nihon Millipore, 69450) transformed using the plasmid was purified using an amylose resin column (New England Biolabs, #800-21 L).
The inhibitory action of the test compound on human recombinant KAT-II was determined by the following method.
To a reaction mixture (45 μL) containing 3.0 μmol/L kynurenine, 10 μmol/L pyridoxal phosphate, 2.0 ng/μL human recombinant KAT-II, and 150 mmol/L tris(hydroxymethyl)aminomethane-acetate buffer (pH 8.0) was added a 10% dimethyl sulfoxide solution (5 μL) of each test compound prepared, and the mixture was reacted at 37° C. for 1 hr. After the reaction, 50% trichloroacetic acid (5 μL) was added to terminate the reaction.
The resultant kynurenic acid was quantified as follows by high performance liquid chromatography. An enzyme reaction mixture was separated by an octadecylsilane reversed-phase column (SC-50DS, Eicom Corporation; mobile phase: 250 mmol/L zinc acetate, 50 mmol/L sodium acetate, and 5.0% acetonitrile (pH 6.2)) incubated at 30° C., and kynurenic acid was quantified using a fluorescence detector (RF-20Axs, Shimadzu Corporation) at excitation wavelength 354 nm, detection wavelength 460 nm. The analytical curve was drawn every time by an external standard method. Each test compound was tested by dual measurement at each concentration. The kynurenic acid level in the presence of a test compound at each concentration was converted into % relative to kynurenic acid resulting from a reaction with an enzyme alone as 100%, and the obtained values were fitted to S-curve to determine IC50.

human recombinant KAT-II, sequence (Q8N5Z0 30-425): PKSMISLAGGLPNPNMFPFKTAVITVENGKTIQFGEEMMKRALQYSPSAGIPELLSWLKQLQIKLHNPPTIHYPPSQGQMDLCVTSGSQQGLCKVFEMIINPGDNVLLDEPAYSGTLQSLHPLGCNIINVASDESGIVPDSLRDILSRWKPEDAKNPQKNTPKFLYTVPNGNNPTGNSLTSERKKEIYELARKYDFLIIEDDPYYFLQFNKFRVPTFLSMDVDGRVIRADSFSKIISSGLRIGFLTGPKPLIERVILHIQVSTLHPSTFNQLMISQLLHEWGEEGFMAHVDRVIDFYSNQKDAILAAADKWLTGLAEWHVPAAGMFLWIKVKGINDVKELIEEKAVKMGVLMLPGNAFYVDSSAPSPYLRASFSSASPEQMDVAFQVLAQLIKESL

| IC50 [µM] | SMILES |
| --- | --- |
| 0.037 | CCOc1ncnc2nc(N3CCC[C@@H]3C(=O)NCc3ccccc3)sc12 [Example 19, (R)—N-benzyl-1-(7-ethoxy[1,3]thiazolo[4,5-d]pyrimidin-2-yl)pyrrolidine-2-carboxamide] |
| 0.026 | O=C(NCc1ccccc1)[C@H]1CCCN1c1nc2ncnc(C3CC3)c2s1 [Example 23, (R)—N-benzyl-1-(7-cyclopropyl[1,3]thiazolo[4,5-d]pyrimidin-2-yl)pyrrolidine-2-carboxamide] |
| 0.2 | CCc1ncnc2nc(N3CCC[C@@H]3C(=O)NCc3ccccc3)sc12 [Example 24] |
| 0.12 | CCCc1ncnc2nc(N3CCC[C@@H]3C(=O)NCc3ccccc3)sc12 [Example 26] |
| 0.19 | CC(C)c1ncnc2nc(N3CCC[C@@H]3C(=O)NCc3ccccc3)sc12 [Example 28] |
| 0.27 | CC(C)(C)c1ncnc2nc(N3CCC[C@@H]3C(=O)NCc3ccccc3)sc12 [Example 30] |
| 0.065 | CC1(c2ncnc3nc(N4CCC[C@@H]4C(=O)NCc4ccccc4)sc23)CC1 [Example 31, (R)—N-benzyl-1-[7-(1-methylcyclopropyl)[1,3]thiazolo[4,5-d]pyrimidin-2-yl]pyrrolidine-2-carboxamide] |
| 0.39 | COCCc1ncnc2nc(N3CCC[C@@H]3C(=O)NCc3ccccc3)sc12 [Example 32] |
| 0.6 | COCc1ncnc2nc(N3CCC[C@@H]3C(=O)NCc3ccccc3)sc12 [Example 33] |
| 0.64 | COCc1ncnc2nc(N3CCC[C@@H]3C(=O)N[C@H](C)c3ccccc3)sc12 [Example 34] |
| 0.29 | O=C(NCc1ccccc1)[C@H]1CCCN1c1nc2ncnc(-c3ccccn3)c2s1 [Example 35] |
| 0.17 | CCc1nc(C2CC2)nc2nc(N3CCC[C@@H]3C(=O)NCc3ccccc3)sc12 [Example 41] |
| 0.23 | COCc1nc(C(F)(F)F)c2sc(N3CCC[C@@H]3C(=O)NCc3ccccc3)nc2n1 [Example 56] |
| 0.012 | O=C(NCc1ccccc1)[C@H]1CCCN1c1nc2ncnc(Oc3ccccc3)c2s1 [Example 66] |
| 0.16 | O=C(NCc1ccccc1)[C@H]1CCCN1c1nc2ncnc(OCC(F)(F)F)c2s1 [Example 70] |
| 1.5 | CC(C)(C#N)c1ncnc2nc(N3CCC[C@@H]3C(=O)NCc3ccccc3)sc12 [Example 76, (R)—N-benzyl-1-[7-(2-cyanopropan-2-yl)[1,3]thiazolo[4,5-d]pyrimidin-2-yl]pyrrolidine-2-carboxamide] |
| 0.42 | CCOc1nc(C)c2sc(N3CCC[C@@H]3C(=O)NCc3ccccc3)nc2n1 [Example 88] |
| 0.046 | O=C(NCc1ccccc1)[C@H]1CCCN1c1nc2ncnc(OC3CCC3)c2s1 [Example 89, (R)—N-benzyl-1-[7-(cyclobutyloxy)[1,3]thiazolo[4,5-d]pyrimidin-2-yl]pyrrolidine-2-carboxamide] |
| 0.13 | O=C(NCc1ccccc1)[C@H]1CCCN1c1nc2ncnc(OC3CCOCC3)c2s1 [Example 90] |
| 0.15 | CCc1nc(-n2nccn2)nc2nc(N3CCC[C@@H]3C(=O)NCc3ccccc3)sc12 [Example 101, (R)—N-benzyl-1-[7-ethyl-5-(2H-1,2,3-triazol-2-yl)[1,3]thiazolo[4,5-d]pyrimidin-2-yl]pyrrolidine-2-carboxamide] |
| 0.21 | CC(C)c1cnc2nc(N3CCC[C@@H]3C(=O)NCc3ccccc3)sc2c1 [Example 111] |
| 0.2 | Cc1cnc2nc(N3CCC[C@@H]3C(=O)NCc3ccccc3)sc2c1 [Example 134] |
| 0.49 | Cc1cnc2nc(N3CCC[C@@H]3C(=O)NCc3ccccc3)sc2c1C#N [Example 136, (R)—N-benzyl-1-(7-cyano-6-methyl[1,3]thiazolo[4,5-b]pyridin-2-yl)pyrrolidine-2-carboxamide] |
| 0.32 | COCc1ccnc2nc(N3CCC[C@@H]3C(=O)NCc3ccccc3)sc12 [Example 141] |
| 0.093 | Cc1nc(-c2cnc3nc(N4CCC[C@@H]4C(=O)N[C@H](C)c4ccccc4)sc3c2)no1 [Example 148, (R)-1-[6-(5-methyl-1,2,4-oxadiazol-3-yl)[1,3]thiazolo[4,5-b]pyridin-2-yl]-N-[(1R)-1-phenylethyl]pyrrolidine-2-carboxamide] |
| 0.64 | COCc1cnc2nc(N3CCC[C@@H]3C(=O)NCc3ccccc3)sc2c1 [Example 159] |

Second part, the molecule before the results:

| SMILES | IC50 [µM] |
| --- | --- |
| C[C@H](C(=O)NCc1ccccc1)N(C)c1nc2ncnc(C3CC3)c2s1 [Example 36, (R)—N-benzyl-2-[N′-(7-cyclopropyl[1,3]thiazolo[4,5-d]pyrimidin-2-yl)-N′-methylamino]propionamide] | 0.064 |
| COCCN(c1nc2ncnc(C3CC3)c2s1)[C@H](C)C(=O)NCc1ccccc1 [Example 38] | 0.41 |
| C[C@H](C(=O)NCc1ccccc1)N(Cc1ccccn1)c1nc2ncnc(C3CC3)c2s1 [Example 39] | 0.35 |
| O=C(NCc1ccccc1)[C@H]1CCCN1c1nc2nc(CC3CCOCC3)nc(C3CC3)c2s1 [Example 46] | 0.035 |
| O=C(NCc1ccccc1)[C@H]1CCCN1c1nc2nc(-c3ccncc3)nc(C3CC3)c2s1 [Example 49] | 0.076 |
| O=C(NCc1ccccc1)[C@H]1CCCN1c1nc2nc(C(F)F)nc(C3CCOCC3)c2s1 [Example 55] | 0.41 |
| CN(C)Cc1nc(C2CC2)c2sc(N3CCC[C@@H]3C(=O)NCc3ccccc3)nc2n1 [Example 58] | 0.64 |
| CCNc1nc(C(F)(F)F)nc2nc(N3CCC[C@@H]3C(=O)NCc3ccccc3)sc12 [Example 67] | 0.012 |
| CCOc1nc(C2CCOCC2)nc2nc(N3CCC[C@@H]3C(=O)NCc3ccccc3)sc12 [Example 75] | 0.095 |
| Cc1nc(-c2ccc(F)cc2)nc2nc(N3CCC[C@@H]3C(=O)NCc3ccccc3)sc12 [Example 78] | 0.55 |
| O=C(NCc1ccccc1)[C@H]1CCCN1c1nc2nc(COC3CCOCC3)nc(C3CC3)c2s1 [Example 83] | 0.013 |
| Cc1nc(OC2CCOCC2)nc2nc(N3CCC[C@@H]3C(=O)NCc3ccccc3)sc12 [Example 84] | 0.39 |
| CN(c1nc2ncnc(C3CC3)c2s1)C(C)(C)C(=O)NCc1ccccc1 [Example 92] | 2.1 |
| CN(c1nc2ncnc(C3CC3)c2s1)[C@@H](C(=O)NCc1ccccc1)C1CC1 [Example 93] | 0.14 |
| O=C(NCc1ccccc1)[C@H]1CCCN1c1nc2nc(CN3CCOCC3)nc(C3CC3)c2s1 [Example 98] | 0.075 |
| O=C(NCc1ccccc1)[C@H]1CSCN1c1nc2ncnc(C3CC3)c2s1 [Example 100, (S)—N-benzyl-3-(7-cyclopropyl[1,3]thiazolo[4,5-d]pyrimidin-2-yl)-1,3-thiazolidine-4-carboxamide] | 0.24 |
| CCc1nc(-n2nc(C)cc2C)nc2nc(N3CCC[C@@H]3C(=O)NCc3ccccc3)sc12 [Example 103, (R)—N-benzyl-1-[5-(3,5-dimethyl-1H-pyrazol-1-yl)-7-ethyl[1,3]thiazolo[4,5-d]pyrimidin-2-yl]pyrrolidine-2-carboxamide] | 0.2 |
| CN(C)c1nc(C2CC2)c2sc(N3CCC[C@@H]3C(=O)NCc3ccccc3)nc2n1 [Example 106, (R)—N-benzyl-1-[7-cyclopropyl-5-(N,N-dimethylamino)[1,3]thiazolo[4,5-d]pyrimidin-2-yl]pyrrolidine-2-carboxamide] | 0.92 |
| Cc1nc2nc(N3CCC[C@@H]3C(=O)NCc3ccccc3)sc2c(=O)n1C [Example 109, (R)—N-benzyl-1-(5,6-dimethyl-7-oxo-6,7-dihydro[1,3]thiazolo[4,5-d]pyrimidin-2-yl)pyrrolidine-2-carboxamide] | 0.84 |
| CC(C)(C#N)c1cnc2nc(N3CCC[C@@H]3C(=O)NCc3ccccc3)sc2c1 [Example 113, (R)—N-benzyl-1-[6-(2-cyanopropan-2-yl)[1,3]thiazolo[4,5-b]pyridin-2-yl]pyrrolidine-2-carboxamide] | 0.085 |
| N#CC1(c2cnc3nc(N4CCC[C@@H]4C(=O)NCc4ccccc4)sc3c2)CCC1 [Example 115] | 0.07 |
| N#CC1(c2cnc3nc(N4CCC[C@@H]4C(=O)NCc4ccccc4)sc3c2)CCOCC1 [Example 116] | 0.09 |
| COCC1(c2cnc3nc(N4CCC[C@@H]4C(=O)NCc4ccccc4)sc3c2)CC1 [Example 117] | 0.17 |
| Cc1cc2sc(N3CCC[C@@H]3C(=O)NC3(c4ccccc4)CC3)nc2nc1C [Example 120] | 0.53 |
| O=C(NCc1ccccc1)[C@H]1CCCN1c1nc2ncc(C(F)(F)F)cc2s1 [Example 124] | 0.71 |
| O=C(NCc1ccccc1)[C@H]1CCCN1c1nc2ncc(C3(O)CCC3)cc2s1 [Example 126] | 0.19 |
| COC1(c2cnc3nc(N4CCC[C@@H]4C(=O)NCc4ccccc4)sc3c2)CCC1 [Example 127] | 0.28 |
| O=C(NCc1ccccc1)[C@H]1CCCN1c1nc2ncc(C3CCOCC3)cc2s1 [Example 129] | 0.072 |
| Cc1nc(-c2c(C)cnc3nc(N4CCC[C@@H]4C(=O)NCc4ccccc4)sc23)no1 [Example 149] | 0.11 |
| O=C(NCc1ccccc1)[C@H]1CCCN1c1nc2ncc(OC3COC3)cc2s1 [Example 151] | 0.27 |
